Assay results reported in the NIST ThermoML archive (doi:10.1021/acs.jced.5b00934).

Conditions: Liquid, Vibrating tube method

CCC(C)O (configuration not stated) [butan-2-ol]
Conditions | mass density [kg/m3]
283.15 K, 99 kPa | 814.7
283.15 K, 306 kPa | 814.8
283.15 K, 529 kPa | 815
283.15 K, 909 kPa | 815.3
283.15 K, 1030 kPa | 815.4
283.15 K, 2005 kPa | 816.1
283.15 K, 2987 kPa | 816.8
283.15 K, 4975 kPa | 818.2
283.15 K, 6996 kPa | 819.6
283.15 K, 9019 kPa | 821
283.15 K, 10037 kPa | 821.7
283.15 K, 12013 kPa | 823
283.15 K, 14917 kPa | 824.9
283.15 K, 17956 kPa | 826.9
283.15 K, 20028 kPa | 828.2
283.15 K, 21997 kPa | 829.4
283.15 K, 24984 kPa | 831.2
283.15 K, 27996 kPa | 833
283.15 K, 29889 kPa | 834.1
283.15 K, 31914 kPa | 835.3
283.15 K, 33047 kPa | 835.9
283.15 K, 33065 kPa | 835.9
283.15 K, 34001 kPa | 836.4
283.15 K, 34979 kPa | 836.9
283.15 K, 40002 kPa | 839.7
283.15 K, 42074 kPa | 840.9
283.15 K, 44993 kPa | 842.4
283.15 K, 48024 kPa | 844
283.15 K, 50047 kPa | 845.1
283.15 K, 52032 kPa | 846.1
283.15 K, 55041 kPa | 847.6
283.15 K, 57909 kPa | 849.1
283.15 K, 60034 kPa | 850.1
283.15 K, 62037 kPa | 851.1
283.15 K, 65102 kPa | 852.6
283.15 K, 66079 kPa | 853
283.16 K, 37912 kPa | 838.6
288.15 K, 99 kPa | 810.8
288.15 K, 298 kPa | 811
288.15 K, 511 kPa | 811.1
288.15 K, 912 kPa | 811.4
288.15 K, 993 kPa | 811.5
288.15 K, 2048 kPa | 812.3
288.15 K, 3020 kPa | 813
288.15 K, 5097 kPa | 814.5
288.15 K, 10002 kPa | 818
288.15 K, 11924 kPa | 819.3
288.15 K, 15086 kPa | 821.4
288.15 K, 17992 kPa | 823.4
288.15 K, 19982 kPa | 824.6
288.15 K, 21991 kPa | 825.9
288.15 K, 25200 kPa | 827.9
288.15 K, 28149 kPa | 829.7
288.15 K, 30056 kPa | 830.8
288.15 K, 32010 kPa | 832
288.15 K, 32915 kPa | 832.4
288.15 K, 32978 kPa | 832.5
288.15 K, 33919 kPa | 833
288.15 K, 37967 kPa | 835.3
288.15 K, 40071 kPa | 836.5
288.15 K, 42013 kPa | 837.6
288.15 K, 45099 kPa | 839.3
288.15 K, 47977 kPa | 840.8
288.15 K, 51983 kPa | 842.9
288.15 K, 57976 kPa | 846
288.15 K, 62043 kPa | 848
288.15 K, 64998 kPa | 849.5
288.15 K, 66143 kPa | 850
288.16 K, 6990 kPa | 815.8
288.16 K, 9100 kPa | 817.3
288.16 K, 35048 kPa | 833.7
288.16 K, 50052 kPa | 842
288.16 K, 54961 kPa | 844.5
288.16 K, 59961 kPa | 847
293.15 K, 99 kPa | 806.7
293.15 K, 891 kPa | 807.3
293.15 K, 10027 kPa | 814.1
293.15 K, 12006 kPa | 815.5
293.15 K, 14925 kPa | 817.5
293.15 K, 22039 kPa | 822.3
293.15 K, 24969 kPa | 824.2
293.15 K, 28001 kPa | 826
293.15 K, 30012 kPa | 827.2
293.15 K, 31992 kPa | 828.4
293.15 K, 33079 kPa | 829.1
293.15 K, 34051 kPa | 829.6
293.15 K, 37933 kPa | 831.9
293.15 K, 40088 kPa | 833.1
293.15 K, 42062 kPa | 834.2
293.15 K, 45052 kPa | 835.9
293.15 K, 48098 kPa | 837.6
293.15 K, 50000 kPa | 838.6
293.15 K, 51999 kPa | 839.7
293.15 K, 55060 kPa | 841.3
293.15 K, 58191 kPa | 842.9
293.15 K, 62049 kPa | 844.8
293.15 K, 64958 kPa | 846.3
293.15 K, 66185 kPa | 846.9
293.16 K, 304 kPa | 806.8
293.16 K, 505 kPa | 807
293.16 K, 1026 kPa | 807.4
293.16 K, 1994 kPa | 808.2
293.16 K, 3011 kPa | 808.9
293.16 K, 4984 kPa | 810.4
293.16 K, 7001 kPa | 811.9
293.16 K, 8967 kPa | 813.4
293.16 K, 17912 kPa | 819.5
293.16 K, 20060 kPa | 821
293.16 K, 33109 kPa | 829
293.16 K, 35005 kPa | 830.2
293.16 K, 60071 kPa | 843.8
298.15 K, 96 kPa | 802.3
298.15 K, 291 kPa | 802.5
298.15 K, 488 kPa | 802.7
298.15 K, 995 kPa | 803.1
298.15 K, 2020 kPa | 803.9
298.15 K, 9025 kPa | 809.3
298.15 K, 10078 kPa | 810
298.15 K, 17949 kPa | 815.6
298.15 K, 19932 kPa | 817
298.15 K, 22061 kPa | 818.4
298.15 K, 24991 kPa | 820.3
298.15 K, 27926 kPa | 822.2
298.15 K, 30121 kPa | 823.6
298.15 K, 32061 kPa | 824.8
298.15 K, 33040 kPa | 825.4
298.15 K, 33088 kPa | 825.4
298.15 K, 35034 kPa | 826.5
298.15 K, 38020 kPa | 828.3
298.15 K, 49981 kPa | 835.1
298.15 K, 57978 kPa | 839.4
298.15 K, 60039 kPa | 840.5
298.15 K, 62048 kPa | 841.5
298.15 K, 66054 kPa | 843.6
298.16 K, 906 kPa | 803
298.16 K, 3037 kPa | 804.7
298.16 K, 5064 kPa | 806.3
298.16 K, 7065 kPa | 807.8
298.16 K, 12017 kPa | 811.4
298.16 K, 15244 kPa | 813.7
298.16 K, 34019 kPa | 825.9
298.16 K, 40026 kPa | 829.5
298.16 K, 42019 kPa | 830.7
298.16 K, 44993 kPa | 832.3
298.16 K, 47933 kPa | 834
298.16 K, 52047 kPa | 836.3
298.16 K, 54969 kPa | 837.8
298.16 K, 65037 kPa | 843.1
303.15 K, 98 kPa | 798.2
303.15 K, 290 kPa | 798.3
303.15 K, 914 kPa | 798.8
303.15 K, 1019 kPa | 798.9
303.15 K, 2009 kPa | 799.7
303.15 K, 3007 kPa | 800.5
303.15 K, 4968 kPa | 802.1
303.15 K, 8967 kPa | 805.2
303.15 K, 17980 kPa | 811.8
